{"source": "patent US20230404929A1", "about": "“Intradermal Delivery of Extracellular Vesicle-Encapsulated Curcumin Using Dissolvable Microneedle Arrays” (priority 2020, published 2023)", "key": {"[1]": {"assay": "in vitro stability of curcumin in phosphate-buffered saline at 37° C.", "type": "physicochemical"}, "[2]": {"tested_on": "psoriasis-like inflammation", "assay": "imiquimod psoriasis-like skin inflammation in mice", "type": "in vivo", "conditions": "skin cross-section", "excerpt": "The efficacy of dMNA-delivered CA-EVs in simultaneously blocking and reversing inflammation was studied. The treatments included topical, intradermal, and dMNA application of CA-EVs, naïve EVs, and naked curcumin."}}, "data": [{"compound": "COc1cc(/C=C/C(=O)CC(=O)/C=C/c2ccc(O)c(OC)c2)ccc1O", "note": "[naked curcumin, curcumin]", "values": [{"measurement": "curcumin remaining stable", "setting": "[1]; 3 hours", "value": 5, "unit": "%"}, {"measurement": "degradation of curcumin over time", "setting": "[1]; seven-day study", "value": "degraded entirely within one day"}, {"measurement": "therapeutic effect on imiquimod-induced skin inflammation", "setting": "[2]", "value": "negligible effect"}]}]}
